Values after ≈ are worked out from the molar mass of the structure shown. Like-named read-outs stand apart in the source and are kept apart here.

Data on three compounds can be found in patent EP0531958A1, “6-Aminoquinolones, their synthesis and their use as antibacterial agents” (MEDIOLANUM FARMACEUTICI S.P.A., priority 1991, dated 1993).

Holding throughout (type): cell-based
The test system of test [1] is Providencia stuardii CNUR 5. Nature of the test: MIC test, agar dilution with Steers multiwell inoculator. Particulars: CNUR5, TSA dishes, 24 h at 35°C, read-out: Minimum Inhibiting Concentration. Here is the method: (§1) As to the antibacterial activity, there was determined the Least (Minimum) Inhibiting Concentration (MIC), by working according to the following operative conditions.
(§2) There were used suspensions of test germs (5 gram-positive and 15 gram-negative) having a known titre, kept freezed at -80°C and diluted, at the time of use, in peptonized water up to a concentration of 1-2.10⁷ cfu/ml.
(§3) A few mg of the products, according to the invention were weighed sufficient for preparing parent solutions in DMSO + NaOH (1N) containing 2560 µg/ml (64µg/ml/dish). From the thus prepared parent solutions there were prepared 12 serial dilutions (1:2) down to the concentration of 1.25 µg/ml.
(§4) 0.5 ml of the different dilutions of each product were distributed on dishes containing 19.5 ml of agarized medium (TSA), maintained in a fluid state at the temperature of 50°C. After slight stirring, the dishes were made to solidify and dry under hood (laminar flow).
(§5) The MIC tests (Least or "Minimum" Inhibiting Concentration) were performed by using a Steers multiwell inoculator having 36 wells, each containing 200 µl of bacterial suspension.
(§6) After inoculation, the dishes were placed into a thermostat and checked after 24 h of incubation at 35°C.
(§7) The MIC is defined as the lowermost product concentration (µg/ml) inhibiting the visible growth of the microorganisms.
(In general: In agar dilution the substance is mixed into plates at graded concentrations.)

Test [2] deals with Pseudomonas aeruginosa CNUR 2. The test is described as above. Particulars: CNUR2, TSA dishes, 24 h at 35°C, read-out: Minimum Inhibiting Concentration. Here is the method:
as §1, §2, §3, §4, §5, §6, §7

The subject of test [3] is Pseudomonas aeruginosa CNUR 4. Described as above. Particulars: CNUR4, TSA dishes, 24 h at 35°C, read-out: Minimum Inhibiting Concentration. Here is the method:
as §1, §2, §3, §4, §5, §6, §7

The subject of test [4] is Shighella enteritidis. The test is described as above. The note with it: TSA dishes, 24 h at 35°C, read-out: Minimum Inhibiting Concentration. Here is the method: as §1, §2, §3, §4, §5, §6, §7
For test [5], the system named is Klebsiella pneumoniae ATCC 10031. Described as above. The note with it: ATCC10031, TSA dishes, 24 h at 35°C, read-out: Minimum Inhibiting Concentration. Here is the method: as §1, §2, §3, §4, §5, §6, §7
Test [6] deals with Escherichia coli ATCC 8739. Described as above. Particulars: ATCC8739, TSA dishes, 24 h at 35°C, read-out: Minimum Inhibiting Concentration. Here is the method: as §1, §2, §3, §4, §5, §6, §7
Test [7] deals with Enterobacter cloacae OMNF 1153. Described as above. Particulars: OMNF1153, TSA dishes, 24 h at 35°C, read-out: Minimum Inhibiting Concentration. Here is the method: as §1, §2, §3, §4, §5, §6, §7
For test [8], the system named is Pseudomonas aeruginosa ATCC 9027. The test is described as above. Particulars: ATCC9027, TSA dishes, 24 h at 35°C, read-out: Minimum Inhibiting Concentration. Here is the method: as §1, §2, §3, §4, §5, §6, §7
For test [9], the system named is Staphylococcus epidermidis CPHL A2. The description is as above. Particulars: CPHLA2, TSA dishes, 24 h at 35°C, read-out: Minimum Inhibiting Concentration. Here is the method:
as §1, §2, §3, §4, §5, §6, §7

Test [10] has as its system Acinebacter calcoloaceticus OSMPV 1130. The description is as above. The note with it: TSA dishes, 24 h at 35°C, read-out: Minimum Inhibiting Concentration. Here is the method:
as §1, §2, §3, §4, §5, §6, §7

The subject of test [11] is Enterobacter cloacae OMNF 1174. The description is as above. The note with it: OMNF1174, TSA dishes, 24 h at 35°C, read-out: Minimum Inhibiting Concentration. Here is the method:
as §1, §2, §3, §4, §5, §6, §7

The test system of test [12] is Staphylococcus epidermidis HCF Berset C. Described as above. The note with it: TSA dishes, 24 h at 35°C, read-out: Minimum Inhibiting Concentration. Here is the method: as §1, §2, §3, §4, §5, §6, §7
Test [13] deals with Escherichia coli 120. The test is described as above. The note with it: TSA dishes, 24 h at 35°C, read-out: Minimum Inhibiting Concentration. Here is the method:
as §1, §2, §3, §4, §5, §6, §7

The subject of test [14] is Staphylococcus aureus ATCC 6538. The description is as above. The note with it: ATCC6538, TSA dishes, 24 h at 35°C, read-out: Minimum Inhibiting Concentration. Here is the method:
as §1, §2, §3, §4, §5, §6, §7

Test [15] deals with Streptococcus facealis LEP Br. The test is described as above. Particulars: TSA dishes, 24 h at 35°C, read-out: Minimum Inhibiting Concentration. Here is the method:
as §1, §2, §3, §4, §5, §6, §7

The test system of test [16] is Staphylococcus aureus MPR 5. The test is described as above. Particulars: MPR5, TSA dishes, 24 h at 35°C, read-out: Minimum Inhibiting Concentration. Here is the method:
as §1, §2, §3, §4, §5, §6, §7

In test [17] the test system is Escherichia coli CNUR 1. The description is as above. The note with it: CNUR1, TSA dishes, 24 h at 35°C, read-out: Minimum Inhibiting Concentration. Here is the method:
as §1, §2, §3, §4, §5, §6, §7

Test [18] has as its system Proteus vulgaris CNUR 6. The description is as above. The note with it: CNUR6, TSA dishes, 24 h at 35°C, read-out: Minimum Inhibiting Concentration. Here is the method: as §1, §2, §3, §4, §5, §6, §7
The subject of test [19] is Escherichia coli ISF 432. Described as above. Particulars: ISF432, TSA dishes, 24 h at 35°C, read-out: Minimum Inhibiting Concentration. Here is the method: as §1, §2, §3, §4, §5, §6, §7
The subject of test [20] is Escherichia coli CNUR 8. Described as above. Particulars: CNUR8, TSA dishes, 24 h at 35°C, read-out: Minimum Inhibiting Concentration. Here is the method:
as §1, §2, §3, §4, §5, §6, §7

In test [21] the test system is Gram -. Nature of the test: MIC test, average over the 15 gram-negative test germs. The note with it: 24 h. Here is the method: as §1, §2, §3, §4, §5, §6, §7
In test [22] the test system is Gram +. As to the kind of experiment: MIC test, average over the 5 gram-positive test germs. The note with it: 24 h. Here is the method: as §1, §2, §3, §4, §5, §6, §7
Setting [23] is: geometrical average of the MIC over the 15 Gram - strains, read-out: Geometrical Average.
The mark [24] stands for this setting: mean log of the MIC over the 15 Gram - strains, read-out: Log (converted).
Setting [25] is: geometrical average of the MIC over the 5 Gram + strains, read-out: Geometrical Average.

For the compound `Nc1cc2c(=O)c(C(=O)O)cn(C3CC3)c2cc1N1CCCC1` [Compound 10], the MIC is 128 µg/mL (≈ 408 µM) in test [1]; 128 µg/mL (≈ 408 µM) in test [2]; 128 µg/mL (≈ 408 µM) in test [3]; 16 µg/mL (≈ 51.1 µM) in test [4]; 0.25 µg/mL (≈ 0.798 µM) in test [5]; 0.25 µg/mL (≈ 0.798 µM) in [6]. The MIC in test [7] was 16 µg/mL (≈ 51.1 µM); in [8] it was 128 µg/mL (≈ 408 µM); in [9], 128 µg/mL (≈ 408 µM); in test [10] it was 128 µg/mL (≈ 408 µM); in test [11], 8 µg/mL (≈ 25.5 µM); in test [12], 128 µg/mL (≈ 408 µM). In addition, the MIC in test [13] was 4 µg/mL (≈ 12.8 µM); in test [14] it was 128 µg/mL (≈ 408 µM); in [15], 128 µg/mL (≈ 408 µM); in [16], 128 µg/mL (≈ 408 µM); in test [17] it was 16 µg/mL (≈ 51.1 µM); in test [18] it was 128 µg/mL (≈ 408 µM). Besides, the MIC was 0.25 µg/mL (≈ 0.798 µM) in test [19]; 8 µg/mL (≈ 25.5 µM) in test [20]; 13.3 µg/mL (≈ 42.4 µM) in [21] (setting [23]); 13.3 µg/mL (≈ 42.5 µM) in test [21] (setting [24]); 128 µg/mL (≈ 408 µM) in [22] (read-out: Log (converted)).
Turning to `CC1CN(c2cc3c(cc2N)c(=O)c(C(=O)O)cn3C2CC2)CC(C)N1` (centres unmarked) [Compound 11], the MIC in [1] is 2 µg/mL (≈ 5.61 µM); in test [2], 8 µg/mL (≈ 22.4 µM); in test [3], 64 µg/mL (≈ 180 µM); in [4] it was 0.25 µg/mL (≈ 0.701 µM); in [5], 0.03 µg/mL (≈ 0.0842 µM); in test [6], 0.03 µg/mL (≈ 0.0842 µM). Also, the MIC in [7] was 0.5 µg/mL (≈ 1.4 µM); in test [8], 2 µg/mL (≈ 5.61 µM); in test [9], 2 µg/mL (≈ 5.61 µM); in test [10] it was 8 µg/mL (≈ 22.4 µM); in [11] it was 0.5 µg/mL (≈ 1.4 µM); in test [12] it was 4 µg/mL (≈ 11.2 µM). For the same compound, the MIC in [13] stood at 0.12 µg/mL (≈ 0.337 µM); in test [14], 8 µg/mL (≈ 22.4 µM); in [15] it was 32 µg/mL (≈ 89.8 µM); in test [16], 8 µg/mL (≈ 22.4 µM); in test [17], 0.25 µg/mL (≈ 0.701 µM); in test [18], 64 µg/mL (≈ 180 µM). For the same compound, the MIC is 0.03 µg/mL (≈ 0.0842 µM) in test [19]; 0.25 µg/mL (≈ 0.701 µM) in test [20]; 0.75 µg/mL (≈ 2.1 µM) in test [21] (setting [23]); 0.75 µg/mL (≈ 2.1 µM) in test [21] (setting [24]); 6.96 µg/mL in test [22] (setting [25]); 6.97 µg/mL (≈ 19.5 µM) in [22] (read-out: Log (converted)).
As for `CC1CN(c2cc3c(cc2N)c(=O)c(C(=O)O)cn3C2CC2)CCN1` (centres unmarked) [Compound 14], the MIC in [1] was 16 µg/mL (≈ 46.7 µM); in test [2], 4 µg/mL (≈ 11.7 µM); in test [3], 64 µg/mL (≈ 187 µM); in [4], 0.25 µg/mL (≈ 0.73 µM); in [5], 0.03 µg/mL (≈ 0.0876 µM); in test [6], 0.03 µg/mL (≈ 0.0876 µM). In addition, the MIC was 0.5 µg/mL (≈ 1.46 µM) in [7]; 2 µg/mL (≈ 5.84 µM) in test [8]; 4 µg/mL (≈ 11.7 µM) in [9]; 16 µg/mL (≈ 46.7 µM) in test [10]; 0.25 µg/mL (≈ 0.73 µM) in [11]; 4 µg/mL (≈ 11.7 µM) in test [12]. In addition, the MIC in test [13] amounted to 0.06 µg/mL (≈ 0.175 µM); in test [14], 16 µg/mL (≈ 46.7 µM); in test [15], 32 µg/mL (≈ 93.5 µM); in [16] it was 16 µg/mL (≈ 46.7 µM); in test [17], 0.12 µg/mL (≈ 0.35 µM); in test [18], 32 µg/mL (≈ 93.5 µM). Also, the MIC was 0.03 µg/mL (≈ 0.0876 µM) in test [19]; 0.12 µg/mL (≈ 0.35 µM) in test [20]; 0.68 µg/mL (≈ 1.99 µM) in test [21] (setting [23]); 0.679 µg/mL (≈ 1.98 µM) in test [21] (setting [24]); 10.6 µg/mL in [22] (setting [25]); 10.5 µg/mL (≈ 30.8 µM) in test [22] (read-out: Log (converted)).
